In PMC9873282, “Design, synthesis and evaluation of quinoline-O-carbamate derivatives as multifunctional agents for the treatment of Alzheimer’s disease” (Journal of Enzyme Inhibition and Medicinal Chemistry, 2023):
Several values for one entry are separate records, joined by “and”; a condition that tells them apart may be missing. Identical values can stand only once.

Legend:
Rat plasma stability = details: after 3 h incubation
Description: • 2.The stability of 3f was performed in rat liver microsomes. The rat liver microsomes was purchased from Dalian Meilun Biotechnology Co., Ltd, DaLian, China. […] Solution B (25 mL) contained G-6-P-DH (1000 U), Na-Citrate2 (200 mg), and H2O was used as a solvent. NADPH solution (1 mM) was composed by solution A and solution B (v/v = 5:1). […] The reaction was started by the addition of NADPH. The total mixture (200 µL) was incubated at 37 °C. Cold methanol (600 µL) was added at 0, 5, 15, 20, 30, 45 and 60 min, respectively, to stop the reaction. Samples were centrifuged at 13000 rpm for 10 min at 4 °C, and 100 µL supernatant was removed and analysed by UPLC-MS/MS. The stability results were presented as % remaining vs. time. The experiments were conducted in triplicate. • 3.The stability of 3f was performed in rat plasma. […] The supernatant was dried and redissolved in 100 µL methanol. After centrifugation, the supernatant was analysed by UPLC-MS/MS. The stability data were presented as remaining percentage vs time.

eqBuChE = biological target: T1, eqBuChE (Equus caballus, UniProt P81908); test: biochemical; parameters: species or system equine
T1 construct: eqBuChE, from equine serum; purchased Sigma Aldrich; host or cells: equine serum (natural source)
T1 sequence (P81908 whole entry): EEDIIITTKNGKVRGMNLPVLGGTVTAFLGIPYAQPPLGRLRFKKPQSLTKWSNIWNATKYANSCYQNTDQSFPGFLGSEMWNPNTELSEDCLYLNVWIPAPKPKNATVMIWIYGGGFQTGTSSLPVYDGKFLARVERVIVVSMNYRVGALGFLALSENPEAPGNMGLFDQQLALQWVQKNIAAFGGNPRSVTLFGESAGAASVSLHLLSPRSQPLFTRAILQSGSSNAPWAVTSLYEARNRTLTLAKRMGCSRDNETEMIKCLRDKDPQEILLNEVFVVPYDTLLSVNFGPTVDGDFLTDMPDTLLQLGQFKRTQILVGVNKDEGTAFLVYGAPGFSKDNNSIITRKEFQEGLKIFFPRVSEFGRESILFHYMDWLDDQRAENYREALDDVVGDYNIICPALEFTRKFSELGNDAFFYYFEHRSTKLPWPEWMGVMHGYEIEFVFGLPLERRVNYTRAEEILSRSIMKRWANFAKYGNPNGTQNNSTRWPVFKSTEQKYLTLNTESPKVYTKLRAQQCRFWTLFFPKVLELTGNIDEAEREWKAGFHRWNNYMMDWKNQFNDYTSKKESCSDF
Description: The inhibitory activities of the synthesised compounds against eeAChE (from electric eel) and eqBuChE (from equine serum) were tested by the modified Ellman’s method[26]^,[27]. […] The determination of AChE and BuChE inhibitory potency of the synthesised compounds were evaluated by Ellman assay, the detailed procedure referred to our previous work[26]^,[27].

hBuChE [1] = biological target: T2, hBuChE (Homo sapiens, UniProt P06276); test: hBuChE reversibility of inhibition (recovery after dilution); format: biochemical
T2 construct: hBuChE, human serum BuChE; purchased Sigma Aldrich; host or cells: human serum (natural source)
T2 sequence (P06276 29-602): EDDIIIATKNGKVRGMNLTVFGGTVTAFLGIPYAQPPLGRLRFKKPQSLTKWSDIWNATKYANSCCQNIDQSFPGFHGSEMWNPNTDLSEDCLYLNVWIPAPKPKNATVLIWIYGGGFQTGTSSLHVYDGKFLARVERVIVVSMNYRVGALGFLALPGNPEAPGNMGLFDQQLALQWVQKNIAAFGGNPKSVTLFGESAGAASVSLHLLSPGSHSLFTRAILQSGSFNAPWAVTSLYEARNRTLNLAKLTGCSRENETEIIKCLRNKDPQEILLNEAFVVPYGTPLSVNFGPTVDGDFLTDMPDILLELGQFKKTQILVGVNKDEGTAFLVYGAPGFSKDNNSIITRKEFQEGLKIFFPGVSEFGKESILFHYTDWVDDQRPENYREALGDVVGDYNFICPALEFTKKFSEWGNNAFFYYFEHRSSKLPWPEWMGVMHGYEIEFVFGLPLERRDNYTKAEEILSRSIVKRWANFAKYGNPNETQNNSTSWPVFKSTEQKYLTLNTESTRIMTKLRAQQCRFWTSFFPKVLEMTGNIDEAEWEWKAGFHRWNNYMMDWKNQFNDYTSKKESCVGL

eeAChE = biological target: T3, eeAChE (Electrophorus electricus, UniProt O42275); test: Enzyme kinetic study (Lineweaver-Burk) of eeAChE inhibition; format: biochemical, electric eel
T3 construct: eeAChE, from the electric eel; purchased Sigma Aldrich; host or cells: electric eel (natural source)
T3 sequence (O42275 24-633): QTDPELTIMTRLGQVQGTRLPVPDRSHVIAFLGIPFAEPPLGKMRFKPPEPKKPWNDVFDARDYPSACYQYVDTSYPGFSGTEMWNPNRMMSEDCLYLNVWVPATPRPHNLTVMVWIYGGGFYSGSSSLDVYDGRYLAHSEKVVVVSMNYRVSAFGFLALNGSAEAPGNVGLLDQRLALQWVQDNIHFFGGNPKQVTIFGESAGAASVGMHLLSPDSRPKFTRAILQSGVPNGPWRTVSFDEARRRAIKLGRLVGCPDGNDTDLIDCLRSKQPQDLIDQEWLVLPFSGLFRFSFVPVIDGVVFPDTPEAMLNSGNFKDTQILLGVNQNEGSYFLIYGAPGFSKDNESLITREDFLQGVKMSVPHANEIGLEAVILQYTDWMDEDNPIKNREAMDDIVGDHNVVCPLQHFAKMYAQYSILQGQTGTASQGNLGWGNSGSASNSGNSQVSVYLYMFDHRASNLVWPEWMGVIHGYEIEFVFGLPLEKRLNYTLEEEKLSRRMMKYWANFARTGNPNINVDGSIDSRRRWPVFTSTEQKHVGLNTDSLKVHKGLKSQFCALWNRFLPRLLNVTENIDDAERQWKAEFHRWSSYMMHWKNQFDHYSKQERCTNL
Excerpt: In order to determine the mechanism of quinoline-O-carbamate derivatives, the representative compound 3f was chose to perform Lineweaver-Burk double reciprocal plot by plotting the initial velocities of the substrate at y-axis and increasing concentrations substrate at x-axis[27].
Figure 7. Enzyme kinetic study on the mechanism of eeAChE inhibition by compound 3f. (A) Overlaid Lineweaver-Burk reciprocal plots of AChE initial velocity at increasing acetylthiocholine concentration in the absence and in the presence of 3f were determined.

hAChE = biological target: T4, hAChE (Homo sapiens, UniProt P22303); test: biochemical; details: from human erythrocytes; read-out: IC50 ± SD hAChE
T4 construct: hAChE, from human erythrocytes AChE; purchased Sigma Aldrich; host or cells: human erythrocytes (natural source)
T4 sequence (P22303 32-617 isoform P22303-2 limits assumed): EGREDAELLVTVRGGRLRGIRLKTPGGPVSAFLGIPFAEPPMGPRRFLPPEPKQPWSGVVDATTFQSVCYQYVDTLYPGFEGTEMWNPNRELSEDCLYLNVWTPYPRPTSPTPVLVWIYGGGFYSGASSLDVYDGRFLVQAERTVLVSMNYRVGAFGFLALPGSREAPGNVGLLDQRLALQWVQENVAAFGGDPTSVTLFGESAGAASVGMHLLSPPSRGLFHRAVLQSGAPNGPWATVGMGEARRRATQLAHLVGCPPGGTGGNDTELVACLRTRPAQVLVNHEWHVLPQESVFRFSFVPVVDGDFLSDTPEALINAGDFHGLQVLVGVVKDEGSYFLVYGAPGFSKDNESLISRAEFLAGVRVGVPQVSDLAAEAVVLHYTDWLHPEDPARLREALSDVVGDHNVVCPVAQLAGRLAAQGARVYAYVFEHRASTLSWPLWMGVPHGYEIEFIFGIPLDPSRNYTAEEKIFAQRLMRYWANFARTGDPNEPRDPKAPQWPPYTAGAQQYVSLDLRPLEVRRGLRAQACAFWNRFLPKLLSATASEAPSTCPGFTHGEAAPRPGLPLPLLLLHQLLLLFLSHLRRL
Description: (§1) Acetylcholinesterase (eeAChE, from the electric eel; hAChE, from human erythrocytes AChE), butyrylcholinesterase (eqBuChE, from equine serum; hBuChE, human serum BuChE), 5,5′-dithiobis-2-nitrobenzoic acid (Ellman’s reagent, DTNB), acetylthiocholine chloride (ATC), and butyrylthiocholine chloride (BTC) were purchased form Sigma Aldrich. The determination of AChE and BuChE inhibitory potency of the synthesised compounds were evaluated by Ellman assay, the detailed procedure referred to our previous work[26]^,[27].

hBuChE [2] = biological target: T2, hBuChE; test: biochemical
Description: as §1

NO = NO release in LPS-stimulated BV-2 cells (Griess method); format: cell-based; details: 1 µg/mL LPS 24 h
Description: Firstly, the cytotoxicity of compounds 3a, 3c, 3e, 3f, 3k, 3m and 3n were tested using CCK8 assay.
BV-2 cells (2 × 10^5 cells/well) were seeded in a 24-well cell culture plates. The cells were divided into blank control group, model group (1 µg/mL LPS), LPS + 2 µM compound group, LPS + 1 µM compound group. Each drug group was pre-treated with corresponding concentration of drug solution for 8 h. After 8 h, the culture medium was aspirated out. Except for the blank control group, which was added with DMEM medium, the other groups were stimulated with 1 µg/mL LPS for 24 h. Then cell supernatant was aspirated and centrifuged at 3000 rpm for 3 min. The content of NO in cell culture supernatant was determined by Griess method, and the levels of cytokines IL-6 and IL-1β in cell culture supernatant were determined by IL-6 ELISA kit and IL-1β ELISA kit, respectively.

zebrafish embryos = test: Acute toxicity in zebrafish embryos
Description: The survival rate of zebrafish embryos was observed and recorded every 24h, and observation was stopped when zebrafish embryos developed to 120 hpf. […] When the culture was to be 120hpf, photographic observations were made under a body microscope (RM2235; Leica). And the body length, pericardial oedema, swim bladder area, liver area, and liver fluorescence intensity of zebrafish were measured by ImageJ software. • Zebrafish experimental grouping. […] All the data were expressed as mean ± SEM and statistical analysis were performed using GraphPad Prism software. The significance of differences were determined using one-way ANOVA. Data were expressed as mean ± standard deviation, and *p < 0.05 indicates a significant difference.

PC12 cells = test: Cytotoxicity on PC12 cells; format: cell-based; details: at concentration below 40 µM
Description: The neuroprotective effect of compounds 3a, 3c, 3e, 3f, 3k, 3m, and 3n on Aβ25–35-induced PC12 cells injury were evaluated using CCK-8 assay. […] Furthermore, as shown in Figure 12(B), when PC12 cells were exposed to 25 µM Aβ25-35, the cell viability sharply declined to 57.3% (p < 0.01) compared with untreated group.
The PC12 cells during the logarithmic growth phase were digested and centrifuged with pancreatic enzyme solution, the cells were resuspended by adding the prepared media solution, and piped evenly with a pipette to seed in a 96-well cell culture plate (cell concentration adjusted to 2.0 × 10^4 cell·mL^−1). Each well was added 100 µL complete medium was added to each well and incubated at 37 °C and 5% CO2 for 24 h.

ACh = ACh level in AlCl3-induced zebrafish AD model tissue; format: in vivo
Excerpt: . After the behavioural experiments, the 168hpf zebrafish were killed and ground, the tissue were used to test the AChE activity and ACh levels. […] .

[3] = system: AlCl3-induced zebrafish AD model; test: Behavioural assay in AlCl3-induced zebrafish AD model; format: in vivo
[4] = alternating dark light stimuli, 0.08 µM
[5] = alternating dark light stimuli, 0.16 µM
[6] = alternating dark light stimuli, 0.32 µM

SMILES: CCN(CC)C(=O)Oc1cccc2ncccc12 [Compound 3f, Quinolin-5-yl diethylcarbamate]
- remaining amount in rat plasma (Rat plasma stability): 95.5%
- IC50 (eqBuChE; BuChE from equine serum, read-out: IC50 ± SD eqBuChE): 0.81 ± 0.06 µM
- SI = IC50 (AChE)/IC50 (BuChE) (eqBuChE; eeAChE/eqBuChE): 1.6
- reversibility of hBuChE inhibition (hBuChE [1]): reversible hBuChE inhibitor
- hBuChE activity (% control) (hBuChE [1]; 0.1*IC50, diluted): 53.6 % control
- hBuChE activity restored (hBuChE [1]; 0.1 × IC50, 120 min): 70.7%
- hBuChE activity restored (hBuChE [1]; 0.1 × IC50, 240 min): 95.6%
- hBuChE activity (% control) (hBuChE [1]; 1*IC50, diluted): 51.4 % control
- hBuChE activity (% control) (hBuChE [1]; 1*IC50, undiluted): 48.8 % control
- type of AChE inhibition (eeAChE; Lineweaver-Burk plot): mixed-type
- Ki (eeAChE; replot of slope versus concentration, read-out: inhibition constant Ki): 1.73 µM
- IC50 (hAChE): 5.6 ± 0.07 µM
- IC50 (hBuChE [2]; from human serum, read-out: IC50 ± SD hBuChE): 2.34 µM and 2.3 µM
- SI = IC50 (AChE)/IC50 (BuChE) (hBuChE [2]; hAChE/hBuChE): 2.4
- release volume of NO (NO): significantly decreased
- percentage survival (zebrafish embryos; 40.9 µM, 4 hpf): 100%
- survival (zebrafish embryos; 40.9 µM, 24 hpf): all the zebrafish were dead
- liver florescence area and median fluorescence intensity (zebrafish embryos; 0.65, 1.3 and 2.6 µM): did not produce obvious change
- pericardial oedema/body length (zebrafish embryos; at five concentrations of 3f, 120 hpf): did not produce significant change
- maximum non-lethal concentration (MNLC) (zebrafish embryos; zebrafish, in vivo): 20.5 µM
- cytotoxicity on PC12 cells (PC12 cells): did not show any cytotoxicity
- ACh activity (level) (ACh; 0.08 µM): 16.4 pmol/L
- ACh activity (level) (ACh; 0.16 µM): 18.4 pmol/L
- ACh activity (level) (ACh; 0.32 µM): 15.4 pmol/L
- total velocity ([3]; 0.16 µM, compared with donepezil): could improve AlCl3-induced zebrafish AD model
- distance moved [3, 4]: 1029.2 cm
- velocity [3, 4]: 17.5 cm/min
- distance moved [3, 5]: 1241.5 cm
- velocity [3, 5]: 22.3 cm/min
- distance moved [3, 6]: 1022.8 cm
- velocity [3, 6]: 17.0 cm/min
- distance moved ([3]; dark environment, 0.08 µM): 607.3 cm
- velocity ([3]; dark environment, 0.08 µM): 21.3 cm/min
- distance moved ([3]; dark environment, 0.16 µM): 709.4 cm
- velocity ([3]; dark environment, 0.16 µM): 24.7 cm/min
- distance moved ([3]; dark environment, 0.32 µM): 521.7 cm
- velocity ([3]; dark environment, 0.32 µM): 17.3 cm/min
- optimal dose ([3]; dyskinesia and reaction capacity, ACh levels): 0.16 µM
- velocity ([3]; light condition, 0.08 µM): 14.7 cm/min
- velocity ([3]; light condition, 0.16 µM): 19.3 cm/min
- velocity ([3]; light condition, 0.32 µM): 17.6 cm/min
